Legend:
Format in all cases: biochemical
[1] = target: T1, PI3Kalpha (Homo sapiens, UniProt P42336); assay: PI3K alpha enzyme assay (HTRF); conditions: PI3Kalpha 0.4875 nM, ATP 25 uM, di-C8 PI(4,5)P2 3.5 uM, 30 min room temperature; read-out: IC50 (inhibit PI3Kalpha)
T1 construct: His (N); host or cells: baculovirus expression system (insect cells)
Experimental: 0.5 uL compounds in DMSO are added to wells of a 384 well microtitre plate (Corning 3575). At room temperature: 10 ul PI3K reaction buffer (50 mM Hepes, 5 mM DTT, 150 mM NaCl, 10 mM beta-glycerophosphate, 10 mM MgCl2, 0.25 mM sodium cholate and 0.001% CHAPS, pH 7.00) containing ATP (25 uM, Promega) is added followed immediately by 10 ul PI3K reaction buffer containing di-C8 PI(4,5)P2 (3.5 uM, CellSignals) and PI3Kalpha (0.4875 nM, Millennium Protein Sciences Group) and the mixture is incubated with shaking at room temperature for 30 minutes. Then 5 ul PI3K stop mix (50 mM Hepes, 5 mM DTT, 150 mM NaCl, 0.01% Tween-20, 15 mM EDTA and 25 nM biotin-PI(3,4,5)P3 (Echelon) is added to quench the reaction followed immediately by addition of 5 ul HTRF detection mix (50 mM Hepes, 5 mM DTT, 150 mM NaCl, 0.01% Tween-20, 40 mM KF, 10 nM GST:GRP-1 PH domain (Millennium Protein Sciences Group), 15 nM Streptavidin-XL (CisBio) and 0.375 nM anti-GST Eu++ antibody (CisBio) at pH 7.00). The plates are then incubated for 1 hour at room temperature with shaking and then read on a BMG PheraStar Plus reader.

[2] = target: T2, hPI3Kα (p110alpha catalytic subunit and human p85alpha regulatory subunit complex) (Homo sapiens, UniProt P42336); assay: Human PI3Kα enzyme assay (Phospholipid FlashPlate, γ-[33P] ATP); conditions: PI3Kα enzyme activity, compound at 1.0 μm, 500 nM ATP
T2 construct: made in house; host or cells: Sf21 insect cells (baculovirus, Bac-to-Bac)
T2 sequence (P42336 whole entry): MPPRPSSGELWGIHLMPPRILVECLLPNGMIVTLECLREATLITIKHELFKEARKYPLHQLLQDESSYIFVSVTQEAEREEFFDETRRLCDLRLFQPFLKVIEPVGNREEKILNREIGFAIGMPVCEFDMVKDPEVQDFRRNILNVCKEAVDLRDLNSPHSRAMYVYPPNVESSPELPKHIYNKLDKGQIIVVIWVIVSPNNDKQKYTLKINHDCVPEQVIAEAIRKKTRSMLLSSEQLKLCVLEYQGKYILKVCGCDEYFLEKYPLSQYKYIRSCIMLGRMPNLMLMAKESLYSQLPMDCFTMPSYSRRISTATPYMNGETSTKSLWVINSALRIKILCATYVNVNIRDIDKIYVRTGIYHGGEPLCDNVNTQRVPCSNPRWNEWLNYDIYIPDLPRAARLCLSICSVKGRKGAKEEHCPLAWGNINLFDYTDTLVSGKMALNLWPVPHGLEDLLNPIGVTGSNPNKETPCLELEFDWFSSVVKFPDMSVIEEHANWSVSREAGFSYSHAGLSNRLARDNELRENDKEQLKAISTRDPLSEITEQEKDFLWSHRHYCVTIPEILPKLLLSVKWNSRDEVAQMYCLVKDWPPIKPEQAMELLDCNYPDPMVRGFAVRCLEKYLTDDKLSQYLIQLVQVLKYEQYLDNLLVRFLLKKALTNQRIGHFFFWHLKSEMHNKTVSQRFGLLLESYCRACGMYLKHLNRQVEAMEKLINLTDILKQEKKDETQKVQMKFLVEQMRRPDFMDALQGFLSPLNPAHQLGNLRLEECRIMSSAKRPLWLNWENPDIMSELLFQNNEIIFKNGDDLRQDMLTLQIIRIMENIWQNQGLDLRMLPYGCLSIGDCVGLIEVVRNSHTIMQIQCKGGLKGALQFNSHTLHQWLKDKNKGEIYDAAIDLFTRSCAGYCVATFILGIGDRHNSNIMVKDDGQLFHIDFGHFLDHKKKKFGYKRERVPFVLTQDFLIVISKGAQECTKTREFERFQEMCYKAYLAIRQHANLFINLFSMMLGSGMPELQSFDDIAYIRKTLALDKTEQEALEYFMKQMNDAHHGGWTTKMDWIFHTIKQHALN
T2 sequence (P27986 whole entry partner): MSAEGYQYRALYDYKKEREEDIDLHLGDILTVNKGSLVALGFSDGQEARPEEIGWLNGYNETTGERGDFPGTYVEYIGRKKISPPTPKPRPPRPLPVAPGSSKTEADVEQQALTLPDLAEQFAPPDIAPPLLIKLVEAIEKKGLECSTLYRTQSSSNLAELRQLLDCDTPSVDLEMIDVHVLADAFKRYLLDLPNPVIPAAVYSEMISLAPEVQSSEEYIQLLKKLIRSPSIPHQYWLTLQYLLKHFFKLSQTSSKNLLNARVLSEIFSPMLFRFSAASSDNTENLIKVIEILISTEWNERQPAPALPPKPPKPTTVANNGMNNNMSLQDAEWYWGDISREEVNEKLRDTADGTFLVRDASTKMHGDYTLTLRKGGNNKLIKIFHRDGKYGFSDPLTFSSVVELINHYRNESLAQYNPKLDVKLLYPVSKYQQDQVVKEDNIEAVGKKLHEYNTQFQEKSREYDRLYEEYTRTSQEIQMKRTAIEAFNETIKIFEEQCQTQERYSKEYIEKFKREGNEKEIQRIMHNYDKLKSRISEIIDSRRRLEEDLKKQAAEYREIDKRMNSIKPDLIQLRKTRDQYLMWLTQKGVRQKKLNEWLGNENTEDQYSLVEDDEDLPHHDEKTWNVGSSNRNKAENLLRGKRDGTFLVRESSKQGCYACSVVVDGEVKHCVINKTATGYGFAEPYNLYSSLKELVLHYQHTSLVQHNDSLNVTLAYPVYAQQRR
Experimental: hPIK3CA; p110alpha catalytic subunit (GenBank ACCESSION# NM_006218) and hPIK3R1; p85alpha regulatory subunit (GenBank ACCESSION# NM_181523) are cloned from human cDNA library (Clonetec).
Human p110alpha catalytic subunit gene and human p85alpha regulatory subunit gene are respectively inserted into pFASTBacHT (Invitrogen), and each gene was introduced into a baculovirus vector using a Bac-to-Bac system (Invitrogen). Both viruses are injected to insect cultured cells Sf21 to allow coexpression of proteins. p110alpha catalytic subunit and human p85alpha regulatory subunit complex (hPI3Kα) are purified from the cell extract using a Ni chelate column.
L-alpha-Phosphatidyl-D-myo-inositol 4,5-Diphosphate (diC16) [PI(4,5)P2, Wako Pure Chemical Industries, Ltd.] is suspended in Phospholipid FlashPlate Coating Buffer (PerkinElmer) and applied onto Phospholipid FlashPlate PLUS. PI3K reaction buffer (50 mM Tris-HCl, pH 7.4, 5 mM MgCl2, 1 mM DTT, 0.005% BSA) containing hPI3Kα, γ-[^33P] ATP (PerkinElmer) and cold 500 nM ATP is added to the wells on this plate and the mixture is reacted at room temperature for 1 hr. 50 mM EDTA solution is added to quench the reaction, and the wells are washed with PBS. The radioactivity remaining in the well is measured as enzyme activity by TopCount (PerkinElmer).

[3] = target: T3, human mTOR (Homo sapiens, UniProt P42345); assay: Human mTOR enzyme assay (Z'-lyte peptide FRET); conditions: mTOR enzyme activity, compound at 1.0 μm, 10 μM ATP
T3 construct: purchased Invitrogen
T3 sequence (P42345 1360-2549 limits assumed): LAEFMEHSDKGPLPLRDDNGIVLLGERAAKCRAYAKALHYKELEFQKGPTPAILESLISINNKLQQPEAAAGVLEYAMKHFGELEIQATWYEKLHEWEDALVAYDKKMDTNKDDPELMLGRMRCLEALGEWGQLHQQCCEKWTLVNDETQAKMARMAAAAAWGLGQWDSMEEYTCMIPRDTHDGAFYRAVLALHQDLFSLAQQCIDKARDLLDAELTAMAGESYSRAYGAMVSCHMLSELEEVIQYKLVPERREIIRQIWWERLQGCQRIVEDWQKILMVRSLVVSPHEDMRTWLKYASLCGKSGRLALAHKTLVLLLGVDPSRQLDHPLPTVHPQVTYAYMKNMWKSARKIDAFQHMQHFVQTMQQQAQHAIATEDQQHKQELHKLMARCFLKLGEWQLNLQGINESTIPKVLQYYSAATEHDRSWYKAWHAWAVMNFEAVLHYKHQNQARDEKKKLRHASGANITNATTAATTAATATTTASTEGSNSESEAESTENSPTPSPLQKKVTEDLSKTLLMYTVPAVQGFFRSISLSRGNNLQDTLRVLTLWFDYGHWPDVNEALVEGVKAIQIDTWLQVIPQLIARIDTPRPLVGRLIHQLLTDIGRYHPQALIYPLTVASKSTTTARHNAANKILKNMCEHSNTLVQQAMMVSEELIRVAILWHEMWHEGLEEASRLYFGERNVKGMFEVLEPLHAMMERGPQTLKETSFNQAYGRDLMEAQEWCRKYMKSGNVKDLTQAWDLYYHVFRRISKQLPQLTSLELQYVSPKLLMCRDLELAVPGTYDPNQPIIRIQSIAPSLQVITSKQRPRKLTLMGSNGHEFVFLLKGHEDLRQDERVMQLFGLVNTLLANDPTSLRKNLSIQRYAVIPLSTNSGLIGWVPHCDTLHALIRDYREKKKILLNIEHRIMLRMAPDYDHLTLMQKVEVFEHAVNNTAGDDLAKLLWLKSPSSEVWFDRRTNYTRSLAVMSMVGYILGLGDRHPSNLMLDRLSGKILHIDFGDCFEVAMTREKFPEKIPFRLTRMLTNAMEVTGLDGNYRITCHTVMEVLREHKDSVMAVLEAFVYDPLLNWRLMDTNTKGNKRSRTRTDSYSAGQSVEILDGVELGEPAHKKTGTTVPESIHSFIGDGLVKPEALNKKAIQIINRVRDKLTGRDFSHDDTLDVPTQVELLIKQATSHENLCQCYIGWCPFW
Experimental: mTOR reaction buffer (50 mM HEPES, pH 7.5, 5 mM MgCl2, 5 mM MnCl2, 1 mM EGTA, 1 mM DTT, 0.01% BRIJ-35, 0.01% NaN3) containing human mTOR (Invitrogen), 10 μM ATP and 2 μM Z′-lyte 11Ser/Thr peptide (Invitrogen) is added to the well and the mixture is reacted at room temperature for 1 hr.
Development Buffer containing Development Reagent B (for Z′-lyte peptide, Invitrogen) was added, and the mixture is reacted at room temperature for 30 min. The fluorescence at 520 nm and fluorescence at 445 nm are measured with excitation at 400 nm using SpectraMax M5e (Molecular Device). The ratio of the obtained 445 nm fluorescence value/520 nm fluorescence value is calculated, and changes in the fluorescence resonance energy transfer (FRET) of Z′-lyte peptide are detected as the enzyme activity.

T1 sequence (P42336 whole entry): as the sequence (P42336 whole entry) above
T1 sequence (P27986 whole entry partner): as the sequence (P27986 whole entry partner) above

Structure (SMILES)	IC50 [1] [µM]	other results
Cc1nn2ccc(OCCN3CCCCC3)cc2c1-c1nc(-c2ccccc2)c(-c2nnc[nH]2)s1 [Example 32-B, 2-methyl-3-[4-phenyl-5-(4H-1,2,4-triazol-3-yl)-1,3-thiazol-2-yl]-5-(2-piperidin-1-ylethoxy)pyrazolo[1,5-a]pyridine di-p-toluenesulfonate]	–	Inhibitory rate at 1.0 μm (%) [2]: 100%
CC(=O)Nc1cc(-c2nc(-c3ccncc3)c(-c3ncc[nH]3)s2)ccn1 [Example 27-C]	> 1	–
CCOc1nc(-c2ccnc(NC(=O)c3c(F)cccc3F)c2)sc1-c1nnc[nH]1 [Example 71-B, N-{4-[4-ethoxy-5-(4H-1,2,4-triazol-3-yl)-1,3-thiazol-2-yl]pyridin-2-yl}-2,6-difluorobenzamide]	> 1	–
CCOc1nc(-c2ccnc(NC(=O)c3sccc3C)c2)sc1-c1nnc[nH]1 [Example 52-B, N-{4-[4-ethoxy-5-(4H-1,2,4-triazol-3-yl)-1,3-thiazol-2-yl]pyridin-2-yl}-3-methylthiophene-2-carboxamide]	> 1	–
CCOc1nc(-c2ccnc(NC(=O)c3ccccc3Cl)c2)sc1-c1nnc[nH]1 [Example 54-B, 2-chloro-N-{4-[4-ethoxy-5-(4H-1,2,4-triazol-3-yl)-1,3-thiazol-2-yl]pyridin-2-yl}benzamide]	> 1	–
Cc1nn2c(c1-c1nc(C3CCCCC3)c(-c3nnc[nH]3)s1)CCCC2 [Example 19-B, 3-[4-cyclohexyl-5-(4H-1,2,4-triazol-3-yl)-1,3-thiazol-2-yl]-2-methyl-4,5,6,7-tetrahydropyrazolo[1,5-a]pyridine]	> 1	–
CCOc1nc(-c2ccnc(NC(=O)c3ccncc3)c2)sc1-c1nnc[nH]1 [Example 67-B, N-{4-[4-ethoxy-5-(4H-1,2,4-triazol-3-yl)-1,3-thiazol-2-yl]pyridin-2-yl}pyridine-4-carboxamide]	> 1	–
CC(=O)Nc1cc(-c2nc(-c3ccccc3Cl)c(C(=O)NC[C@@H](C)O)s2)ccn1 [Example 4-C]	> 1	–
Cc1nn2ccc(OCCO)cc2c1-c1nc(-c2ccccc2)c(-c2nnc[nH]2)s1 [Example 33-B, 2-({2-methyl-3-[4-phenyl-5-(4H-1,2,4-triazol-3-yl)-1,3-thiazol-2-yl]pyrazolo[1,5-a]pyridin-5-yl}oxy)ethanol]	–	Inhibitory rate at 1.0 μm (%) [3]: 91%
Cc1nn2ccsc2c1-c1nc(-c2ccccc2)c(-c2nnc[nH]2)s1 [Example 35-B, 6-methyl-7-[4-phenyl-5-(4H-1,2,4-triazol-3-yl)-1,3-thiazol-2-yl]pyrazolo[5,1-b][1,3]thiazole acetate]	–	Inhibitory rate at 1.0 μm (%) [2]: 101%
Cc1nn2ccc(OCCN3CCOCC3)cc2c1-c1nc(-c2ccccc2)c(-c2nnc[nH]2)s1 [Example 31-B, 2-methyl-5-(2-morpholin-4-ylethoxy)-3-[4-phenyl-5-(4H-1,2,4-triazol-3-yl)-1,3-thiazol-2-yl]pyrazolo[1,5-a]pyridine di-p-toluenesulfonate]	–	Inhibitory rate at 1.0 μm (%) [3]: 93%
CCOc1nc(-c2ccnc(NC(=O)c3ccccn3)c2)sc1-c1nnc[nH]1 [Example 49-B, N-{4-[4-ethoxy-5-(4H-1,2,4-triazol-3-yl)-1,3-thiazol-2-yl]pyridin-2-yl}pyridine-2-carboxamide]	> 1	–
C=CCOc1nc(-c2c(C)nn3ccccc23)sc1-c1nnc[nH]1 [Example 27-B, 2-methyl-3-[4-(prop-2-en-1-yloxy)-5-(4H-1,2,4-triazol-3-yl)-1,3-thiazol-2-yl]pyrazolo[1,5-a]pyridine]	–	Inhibitory rate at 1.0 μm (%) [2]: 100%
CC(=O)Nc1cc(-c2nc(-c3ccccc3Cl)c(C(=O)NCCO)s2)ccn1 [Example 48-C, 2-[2-(acetylamino)pyridin-4-yl]-4-(2-chlorophenyl)-N-(2-hydroxyethyl)-1,3-thiazole-5-carboxamide]	> 1	–
CC(=O)Nc1cc(-c2nc(-c3ccccc3)c(-c3ncc[nH]3)s2)c(C)cn1 [Example 36-C]	> 1	–
CCOc1nc(-c2ccnc(NC(=O)C3CCCCC3)c2)sc1-c1nnc[nH]1 [Example 50-B, N-{4-[4-ethoxy-5-(4H-1,2,4-triazol-3-yl)-1,3-thiazol-2-yl]pyridin-2-yl}cyclohexanecarboxamide]	> 1	–
CC(=O)Nc1cc(-c2nc(-c3ccccc3Cl)c(-c3nnc[nH]3)s2)c(C)cn1 [Example 65-C]	> 1	–
CCOc1nc(-c2ccnc(NC(=O)c3ccccc3C)c2)sc1-c1nnc[nH]1 [Example 68-B, N-{4-[4-ethoxy-5-(4H-1,2,4-triazol-3-yl)-1,3-thiazol-2-yl]pyridin-2-yl}-2-methylbenzamide]	> 1	–
CC(=O)Nc1cc(-c2nc(-c3c(C)cccc3C)c(-c3nnc[nH]3)s2)ccn1 [Example 56-C, N-{4-[4-(2,6-dimethylphenyl)-5-(4H-1,2,4-triazol-3-yl)-1,3-thiazol-2-yl]pyridin-2-yl}acetamide]	> 1	–
CC(=O)Nc1cc(-c2nc(-c3ccccc3Cl)c(-c3ncc[nH]3)s2)c(C)cn1 [Example 30-C]	> 1	–
CC(=O)Nc1cc(-c2nc(-c3ccc(-c4nnc(C)o4)cc3)c(-c3ncc[nH]3)s2)ccn1 [Example 8-C]	> 1	–
CCOc1nc(-c2ccnc(NC(=O)C(C)(C)C)c2)sc1-c1nnc[nH]1 [Example 66-B, N-{4-[4-ethoxy-5-(4H-1,2,4-triazol-3-yl)-1,3-thiazol-2-yl]pyridin-2-yl}-2,2-dimethylpropanamide]	> 1	–

Further lines, with some results ahead:

IC50 [1] [µM]	Structure (SMILES)	other results
> 1	CC(=O)Nc1cc(-c2nc(-c3ccc(Oc4ccccc4)cc3)c(-c3ncc[nH]3)s2)ccn1 [Example 60-C]	–
> 1	CC(=O)Nc1cccc(-c2nc(-c3ccnc(NC(C)=O)c3)sc2-c2ncc[nH]2)c1 [Example 72-C]	–
> 1	CC(=O)Nc1cc(-c2nc(-c3ccc(F)c(CO)c3)c(-c3ncc[nH]3)s2)ccn1 [Example 47-C]	–
> 1	CC(=O)Nc1cc(-c2nc(-c3ccc(OC(C)C)cc3)c(-c3ncc[nH]3)s2)ccn1 [Example 46-C]	–
> 1	CC(=O)Nc1cc(-c2nc(-c3cccc(-n4cccn4)c3)c(-c3ncc[nH]3)s2)ccn1 [Example 14-C]	–
> 1	COCCNC(=O)c1sc(-c2ccnc(NC(C)=O)c2)nc1-c1ccccc1Cl [Example 64-C]	–
> 1	COc1cnc(NC(C)=O)cc1-c1nc(-c2ccc(Cl)cc2Cl)c(-c2ncc[nH]2)s1 [Example 18-C]	–
> 1	CC(=O)Nc1cc(-c2nc(Br)c(-c3ncc[nH]3)s2)ccn1 [Example 58-C]	–
> 1	Cc1nc2cccnn2c1-c1nc(-c2ccccc2)c(-c2nnc[nH]2)s1 [Example 41-B, 2-methyl-3-[4-phenyl-5-(4H-1,2,4-triazol-3-yl)-1,3-thiazol-2-yl]imidazo[1,2-b]pyridazine]	–
> 1	COc1ccc(-c2nc(-c3ccnc(NC(C)=O)c3)sc2-c2ncc[nH]2)cc1 [Example 62-C]	–
> 1	COc1ccc(-c2nc(-c3ccnc(NC(C)=O)c3)sc2-c2ncc[nH]2)cc1OC [Example 16-C]	–
> 1	COc1cccc(OC)c1-c1nc(-c2c(C)nn3ccccc23)sc1-c1nc[nH]n1 [Example 102-B, 3-[4-(2,6-dimethoxyphenyl)-5-(1H-1,2,4-triazol-3-yl)-1,3-thiazol-2-yl]-2-methylpyrazolo[1,5-a]pyridine]	–

Source: patent US9090601B2, “Thiazole derivatives” (Millennium Pharmaceuticals, Inc., priority 2009, dated 2015)
